Our source for the Kd values is paper PMC7717986, “Echinacoside Suppresses Amyloidogenesis and Modulates F-actin Remodeling by Targeting the ER Stress Sensor PERK in a Mouse Model of Alzheimer’s Disease” (Frontiers in Cell and Developmental Biology, 2020).

Structures are written as SMILES.

Test [1] addresses T1, human PERK (hPERK) (Homo sapiens, UniProt Q9NZJ5).
T1 construct: gene EIF2AK3
T1 sequence (Q9NZJ5 30-1116): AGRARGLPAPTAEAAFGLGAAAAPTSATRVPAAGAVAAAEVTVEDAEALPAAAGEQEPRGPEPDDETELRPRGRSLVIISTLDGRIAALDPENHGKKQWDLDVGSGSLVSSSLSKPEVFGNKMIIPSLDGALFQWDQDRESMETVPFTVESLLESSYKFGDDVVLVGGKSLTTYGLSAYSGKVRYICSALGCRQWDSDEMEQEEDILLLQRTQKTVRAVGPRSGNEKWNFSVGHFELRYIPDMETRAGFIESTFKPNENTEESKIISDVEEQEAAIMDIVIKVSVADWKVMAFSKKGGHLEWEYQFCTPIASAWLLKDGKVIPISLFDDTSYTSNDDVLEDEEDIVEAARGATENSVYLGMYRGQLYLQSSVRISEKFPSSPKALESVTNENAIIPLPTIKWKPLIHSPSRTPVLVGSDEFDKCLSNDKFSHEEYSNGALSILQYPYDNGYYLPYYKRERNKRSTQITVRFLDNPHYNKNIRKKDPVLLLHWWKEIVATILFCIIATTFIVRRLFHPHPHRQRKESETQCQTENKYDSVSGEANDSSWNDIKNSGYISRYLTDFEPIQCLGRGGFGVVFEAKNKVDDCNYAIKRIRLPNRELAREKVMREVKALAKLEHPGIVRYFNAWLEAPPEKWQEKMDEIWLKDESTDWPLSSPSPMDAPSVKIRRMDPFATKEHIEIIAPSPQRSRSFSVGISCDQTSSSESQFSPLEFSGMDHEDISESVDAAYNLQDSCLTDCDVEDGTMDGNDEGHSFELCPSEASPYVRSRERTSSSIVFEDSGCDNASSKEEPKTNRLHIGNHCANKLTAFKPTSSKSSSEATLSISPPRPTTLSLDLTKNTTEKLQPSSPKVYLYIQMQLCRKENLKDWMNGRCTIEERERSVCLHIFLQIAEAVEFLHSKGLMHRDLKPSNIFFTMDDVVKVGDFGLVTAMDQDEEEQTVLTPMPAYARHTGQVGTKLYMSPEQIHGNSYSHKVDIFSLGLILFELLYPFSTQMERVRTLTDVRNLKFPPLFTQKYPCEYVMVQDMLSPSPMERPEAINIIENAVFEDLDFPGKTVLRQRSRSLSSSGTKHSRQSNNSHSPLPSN
As to the kind of experiment: microscale thermophoresis (MST) with labeled PERK protein. Format: binding. Background: MST reads how a fluorescent partner responds to local heating, with and without ligand.

The target in test [2] is T2, mouse PERK (mPERK) (Mus musculus, UniProt Q9Z2B5).
T2 construct: gene Eif2ak3
T2 sequence (Q9Z2B5 29-1114): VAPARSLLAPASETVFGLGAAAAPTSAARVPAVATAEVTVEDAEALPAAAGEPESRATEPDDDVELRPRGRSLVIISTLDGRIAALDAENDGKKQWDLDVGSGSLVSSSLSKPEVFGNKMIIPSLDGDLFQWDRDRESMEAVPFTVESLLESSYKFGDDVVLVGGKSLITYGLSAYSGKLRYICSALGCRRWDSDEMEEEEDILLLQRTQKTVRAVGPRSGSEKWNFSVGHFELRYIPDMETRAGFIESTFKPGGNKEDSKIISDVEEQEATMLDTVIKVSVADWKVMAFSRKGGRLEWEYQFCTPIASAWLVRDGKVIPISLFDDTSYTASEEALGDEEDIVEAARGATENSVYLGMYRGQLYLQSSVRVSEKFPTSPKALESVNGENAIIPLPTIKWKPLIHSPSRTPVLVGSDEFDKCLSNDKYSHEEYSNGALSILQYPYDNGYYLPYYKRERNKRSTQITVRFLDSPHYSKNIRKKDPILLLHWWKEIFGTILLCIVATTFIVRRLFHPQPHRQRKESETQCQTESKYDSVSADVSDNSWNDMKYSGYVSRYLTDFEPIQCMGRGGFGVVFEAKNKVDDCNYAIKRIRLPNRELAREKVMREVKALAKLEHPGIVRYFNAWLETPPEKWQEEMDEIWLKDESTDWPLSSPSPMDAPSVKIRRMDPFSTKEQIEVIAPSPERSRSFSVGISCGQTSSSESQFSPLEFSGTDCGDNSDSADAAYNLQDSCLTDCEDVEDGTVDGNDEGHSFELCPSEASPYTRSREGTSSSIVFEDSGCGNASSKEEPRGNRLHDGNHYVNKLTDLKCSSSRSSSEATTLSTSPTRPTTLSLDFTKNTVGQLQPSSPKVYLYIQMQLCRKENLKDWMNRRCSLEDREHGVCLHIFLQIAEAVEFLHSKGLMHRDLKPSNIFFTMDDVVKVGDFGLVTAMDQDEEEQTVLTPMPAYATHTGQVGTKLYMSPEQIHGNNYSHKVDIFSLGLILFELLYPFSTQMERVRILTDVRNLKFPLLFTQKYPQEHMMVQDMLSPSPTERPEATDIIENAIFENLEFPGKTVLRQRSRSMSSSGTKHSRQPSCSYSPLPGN
Described as above. Format: binding.

The Kd is the constant that tells how readily two partners part at equilibrium. For `C[C@@H]1O[C@@H](O[C@@H]2[C@@H](O)[C@H](OCCc3ccc(O)c(O)c3)O[C@H](CO[C@@H]3O[C@H](CO)[C@@H](O)[C@H](O)[C@H]3O)[C@H]2OC(=O)/C=C/c2ccc(O)c(O)c2)[C@H](O)[C@H](O)[C@H]1O` [ECH, Echinacoside], the Kd worked out at 635 ± 74 nM in test [1] and 851 ± 81 nM in test [2].
